System: Human keratinocytes
Test: Synergistic osmo-protective activity of homarine and erythritol after NaCl hyper-osmotic stress; UPTIBLUE cell count
Assay type: cell-based
Method: Human kerotinocytes were cultured for 24 h in a culture medium (DMEMc+FCS) than incubated until confluence was obtained. At this stage, the cells were putted in pre-contact with the compounds for 24 h. The day after, a 5h NaCl stress in the presence of the compounds was applied to the cells in the DMEMc medium (without FCS, with BSA) containing 150 mM of NaCl. After this stress, cells were rinced and were recovered with or without the compounds to be tested in the same medium as before (T0). Recovery was estimated at long term by measuring the survival at T5 days and at T7 days after the beginning of the stress (T0). The compounds were tested at the following concentrations: erythritol 0.6%, homarine 0.006% (corresponding to 1×) and homarine 0.06% (corresponding to 10×).
The UPTIBLUE technic was used to visualize and quantify the cell number after the hyper-osmotic shock and the osmo-protective effect of the compound was thus evaluated.

## OC[C@@H](O)[C@@H](O)CO [Erythritol]
T0, erythritol 0.6% alone
  % of change in cell count versus control (post-stress): −8%
T5 days, erythritol 0.6% alone
  % of change in cell count versus control (post-stress): +39%
T7 days, erythritol 0.6% alone
  % of change in cell count versus control (post-stress): +62%

## C[n+]1ccccc1C(=O)[O-] [Homarine]
5 and 7 days after hyper-osmotic shock
  Osmo-protective effect with regards a hyper-osmotic stress, in words: dose dependant
T0, homarine 0.006% (1x), erythritol 0.6% where combined
  % of change in cell count versus control (post-stress): +10%
T0, homarine 0.06% (10x), erythritol 0.6% where combined
  % of change in cell count versus control (post-stress): +14%
T5 days, homarine 0.006% (1x), erythritol 0.6% where combined
  % of change in cell count versus control (post-stress): +33%
T5 days, homarine 0.06% (10x), erythritol 0.6% where combined
  % of change in cell count versus control (post-stress): +93%
T7 days, homarine 0.006% (1x), erythritol 0.6% where combined
  % of change in cell count versus control (post-stress): +26%
T7 days, homarine 0.06% (10x), erythritol 0.6% where combined
  % of change in cell count versus control (post-stress): +130%
